In patent US8742138B2, “Compounds as hypoxia mimetics, and compositions and uses thereof” (Betta Pharmaceuticals Co., Ltd., priority 2009, dated 2014):

target: HIF-PHD2 (Homo sapiens (Human), UniProt Q9GZT9); assay: Assay of HIF-PHD2 Enzyme Activity (TR-FRET); assay type: biochemical; settings: 600 nM full length PHD2, 0.2 μM 2-oxoglutarate, 0.5 μM HIF-1α peptide
Method: HIF-PHD2 activity was measured using homogeneous TR-FRET technology (see also, US2008/004817; Dao J H et al., Anal Biochem. 2009, 384:213-23). To each well of a ½Area 96-well plate was added 2 μL of test compound in DMSO and 40 μL of assay buffer (50 mM Tris PH7.4/0.01% Tween-20/0.1 mg/ml BSA/1 mM Sodium ascorbate/20 μg/ml Catalase/10 μM FeSO4) containing 600 nM full length PHD2. After a 30 min preincubation at room temperature, the enzymatic reactions were initiated by the addition of 8 μL of substrates (final concentrations of 0.2 μM 2-oxoglutarate and 0.5 μM HIF-1α peptide biotinyl-[…]). After 2 hr at room temperature, the reactions were terminated and signals were developed by the addition of a 50 μL quench/detection mix to a final concentration of 1 mM ortho-phenanthroline, 0.1 mM EDTA, 0.5 nM anti-(His)6LANCE reagent, 100 nM AF647-labeled Streptavidin, and 30 nM (His)6-VHL-elonginB-elonginC complex. The ratio of time resolved fluorescence signals at 665 and 620 nm was determined, and percent inhibition was calculated relative to an uninhibited control sample run in parallel.

Sequence of HIF-PHD2 (Q9GZT9 whole entry): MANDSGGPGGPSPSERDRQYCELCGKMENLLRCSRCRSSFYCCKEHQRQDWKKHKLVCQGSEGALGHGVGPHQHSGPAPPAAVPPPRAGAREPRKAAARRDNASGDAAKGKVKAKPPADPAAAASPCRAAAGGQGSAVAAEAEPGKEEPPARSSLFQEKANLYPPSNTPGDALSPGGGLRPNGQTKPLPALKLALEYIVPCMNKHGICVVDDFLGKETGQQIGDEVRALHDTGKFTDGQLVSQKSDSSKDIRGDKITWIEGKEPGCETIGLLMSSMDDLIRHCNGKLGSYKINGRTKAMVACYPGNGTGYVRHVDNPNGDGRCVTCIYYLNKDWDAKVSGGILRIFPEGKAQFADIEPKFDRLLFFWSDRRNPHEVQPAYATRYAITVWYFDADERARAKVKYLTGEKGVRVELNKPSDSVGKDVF

| Compound | IC50 |
| --- | --- |
| O=C(O)CNC(=O)c1c(O)c2ccc(-c3ccccc3)cc2oc1=O [Example 1, N-[(4-hydroxy-2-oxo-7-phenyl-2H-3-chromenyl)carbonyl]glycine] | 250 nM |
| O=C(O)CNC(=O)c1c(O)c2ccc(-c3ccccc3Cl)cc2oc1=O [Example 2, N-[(4-hydroxy-2-oxo-7-(2-chloro-phenyl)-2H-3-chromenyl)carbonyl]glycine] | 150 nM |
| O=C(O)CNC(=O)c1c(O)c2ccc(-c3cccc(Cl)c3)cc2oc1=O [Example 3, N-[(4-hydroxy-2-oxo-7-(3-chloro-phenyl)-2H-3-chromenyl)carbonyl]glycine] | 150 nM |
| O=C(O)CNC(=O)c1c(O)c2ccc(-c3ccc(Cl)cc3)cc2oc1=O [Example 4, N-[(4-hydroxy-2-oxo-7-(4-chloro-phenyl)-2H-3-chromenyl)carbonyl]glycine] | 150 nM |
| O=C(O)CNC(=O)c1c(O)c2ccc(-c3cccc(C(F)(F)F)c3)cc2oc1=O [Example 5, N-[(4-hydroxy-2-oxo-7-(3-trifluoromethyl-phenyl)-2H-3-chromenyl)carbonyl]glycine] | 150 nM |
| O=C(O)CNC(=O)c1c(O)c2ccc(-c3ccc(C(F)(F)F)cc3)cc2oc1=O [Example 6, N-[(4-hydroxy-2-oxo-7-(4-trifluoromethyl-phenyl)-2H-3-chromenyl)carbonyl]glycine] | 150 nM |
| O=C(O)CNC(=O)c1c(O)c2ccc(-c3cccc(OC(F)(F)F)c3)cc2oc1=O [Example 7, N-[(4-hydroxy-2-oxo-7-(3-trifluoromethoxy-phenyl)-2H-3-chromenyl)carbonyl]glycine] | 150 nM |
| O=C(O)CNC(=O)c1c(O)c2ccc(-c3ccc(OC(F)(F)F)cc3)cc2oc1=O [Example 8, N-[(4-hydroxy-2-oxo-7-(4-trifluoromethoxy-phenyl)-2H-3-chromenyl)carbonyl]glycine] | 150 nM |
| O=C(O)CNC(=O)c1c(O)c2ccc(-c3ccc(Cl)c(Cl)c3)cc2oc1=O [Example 9, N-[(4-hydroxy-2-oxo-7-(3,4-dichloro-phenyl)-2H-3-chromenyl)carbonyl]glycine] | 150 nM |
| O=C(O)CNC(=O)c1c(O)c2ccc(-c3ccc(F)c(F)c3)cc2oc1=O [Example 10, N-[(4-hydroxy-2-oxo-7-(3,4-difluoro-phenyl)-2H-3-chromenyl)carbonyl]glycine] | 150 nM |
| O=C(O)CNC(=O)c1c(O)c2ccc(-c3cc(F)c(F)c(F)c3)cc2oc1=O [Example 11, N-[(4-hydroxy-2-oxo-7-(3,4,5-trifluoro-phenyl)-2H-3-chromenyl)carbonyl]glycine] | 150 nM |
| COc1cccc(-c2ccc3c(O)c(C(=O)NCC(=O)O)c(=O)oc3c2)c1 [Example 12, N-[(4-hydroxy-2-oxo-7-(3-methoxy-phenyl)-2H-3-chromenyl)carbonyl]glycine] | 150 nM |
| COc1ccc(-c2ccc3c(O)c(C(=O)NCC(=O)O)c(=O)oc3c2)cc1 [Example 13, N-[(4-hydroxy-2-oxo-7-(4-methoxy-phenyl)-2H-3-chromenyl)carbonyl]glycine] | 150 nM |
| Cc1cccc(-c2ccc3c(O)c(C(=O)NCC(=O)O)c(=O)oc3c2)c1 [Example 14, N-[(4-hydroxy-2-oxo-7-(3-methylphenyl)-2H-3-chromenyl)carbonyl]glycine] | 300 nM |
| Cc1ccc(-c2ccc3c(O)c(C(=O)NCC(=O)O)c(=O)oc3c2)cc1 [Example 15, N-[(4-hydroxy-2-oxo-7-(4-methylphenyl)-2H-3-chromenyl)carbonyl]glycine] | 150 nM |
| O=C(O)CNC(=O)c1c(O)c2cccc(-c3ccccc3)c2oc1=O [Example 16, N-[(4-hydroxy-2-oxo-8-phenyl-2H-3-chromenyl)carbonyl]glycine] | 350 nM |
| O=C(O)CNC(=O)c1c(O)c2cccc(-c3ccccc3Cl)c2oc1=O [Example 17, N-[(4-hydroxy-2-oxo-8-(2-chlorophenyl)-2H-3-chromenyl)carbonyl]glycine] | 200 nM |
| O=C(O)CNC(=O)c1c(O)c2cccc(-c3cccc(Cl)c3)c2oc1=O [Example 18, N-[(4-hydroxy-2-oxo-8-(3-chlorophenyl)-2H-3-chromenyl)carbonyl]glycine] | 90 nM |

| Compound | IC50 |
| --- | --- |
| O=C(O)CNC(=O)c1c(O)c2cccc(-c3ccc(Cl)cc3)c2oc1=O [Example 19, N-[(4-hydroxy-2-oxo-8-(4-chlorophenyl)-2H-3-chromenyl)carbonyl]glycine] | 150 nM |
| O=C(O)CNC(=O)c1c(O)c2cccc(-c3cccc(C(F)(F)F)c3)c2oc1=O [Example 20, N-[(4-hydroxy-2-oxo-8-(3-trifluoromethylphenyl)-2H-3-chromenyl)carbonyl]glycine] | 100 nM |
| O=C(O)CNC(=O)c1c(O)c2cccc(-c3ccc(C(F)(F)F)cc3)c2oc1=O [Example 21, N-[(4-hydroxy-2-oxo-8-(4-trifluoromethylphenyl)-2H-3-chromenyl)carbonyl]glycine] | 90 nM |
| O=C(O)CNC(=O)c1c(O)c2cccc(-c3cccc(OC(F)(F)F)c3)c2oc1=O [Example 22, N-[(4-hydroxy-2-oxo-8-(3-trifluoromethoxyphenyl)-2H-3-chromenyl)carbonyl]glycine] | 100 nM |
| O=C(O)CNC(=O)c1c(O)c2cccc(-c3ccc(OC(F)(F)F)cc3)c2oc1=O [Example 23, N-[(4-hydroxy-2-oxo-8-(4-trifluoromethoxyphenyl)-2H-3-chromenyl)carbonyl]glycine] | 150 nM |
| O=C(O)CNC(=O)c1c(O)c2cccc(-c3ccc(Cl)c(Cl)c3)c2oc1=O [Example 24, N-[(4-hydroxy-2-oxo-8-(3,4-dichlorophenyl)-2H-3-chromenyl)carbonyl]glycine] | 30 nM |
| O=C(O)CNC(=O)c1c(O)c2cccc(-c3ccc(F)c(F)c3)c2oc1=O [Example 25, N-[(4-hydroxy-2-oxo-8-(3,4-difluorophenyl)-2H-3-chromenyl)carbonyl]glycine] | 150 nM |
| O=C(O)CNC(=O)c1c(O)c2cccc(-c3cc(F)c(F)c(F)c3)c2oc1=O [Example 26, N-[(4-hydroxy-2-oxo-8-(3,4,5-trifluorophenyl)-2H-3-chromenyl)carbonyl]glycine] | 150 nM |
| COc1cccc(-c2cccc3c(O)c(C(=O)NCC(=O)O)c(=O)oc23)c1 [Example 27, N-[(4-hydroxy-2-oxo-8-(3-methoxyphenyl)-2H-3-chromenyl)carbonyl]glycine] | 150 nM |
| COc1ccc(-c2cccc3c(O)c(C(=O)NCC(=O)O)c(=O)oc23)cc1 [Example 28, N-[(4-hydroxy-2-oxo-8-(4-methoxyphenyl)-2H-3-chromenyl)carbonyl]glycine] | 80 nM |
| Cc1cccc(-c2cccc3c(O)c(C(=O)NCC(=O)O)c(=O)oc23)c1 [Example 29, N-[(4-hydroxy-2-oxo-8-(3-methylphenyl)-2H-3-chromenyl)carbonyl]glycine] | 150 nM |
| Cc1ccc(-c2cccc3c(O)c(C(=O)NCC(=O)O)c(=O)oc23)cc1 [Example 30, N-[(4-hydroxy-2-oxo-8-(4-methylphenyl)-2H-3-chromenyl)carbonyl]glycine] | 80 nM |
| O=C(O)CNC(=O)c1c(O)c2ccc(-c3cccnc3)cc2oc1=O [Example 33, N-[(4-hydroxy-2-oxo-7-(pyridin-3-yl)-2H-3-chromenyl)carbonyl]glycine] | 200 nM |
| O=C(O)CNC(=O)c1c(O)c2ccc(Oc3ccccc3)cc2oc1=O [Example 34, N-[(4-hydroxy-2-oxo-7-phenoxy-2H-3-chromenyl)carbonyl]glycine] | 150 nM |
| O=C(O)CNC(=O)c1c(O)c2ccc(Br)cc2oc1=O [Example 35, N-[(4-hydroxy-2-oxo-7-bromo-3-chromenyl)carbonyl]glycine] | 150 nM |
| O=C(O)CNC(=O)c1c(O)c2cccc(Br)c2oc1=O [Example 36, N-[(4-hydroxy-2-oxo-8-bromo-3-chromenyl)carbonyl]glycine] | 300 nM |
| O=C(O)CNC(=O)c1c(O)c2cc(Br)ccc2oc1=O [Example 37, N-[(4-hydroxy-2-oxo-6-bromo-3-chromenyl)carbonyl]glycine] | 700 nM |
